The supplement of paper PMC4862054

How the values were obtained:
Assay in all cases: normalised viability (% of control), CellTiter-Blue; higher = more viable cells (about 100 = DMSO control)
SK-BR-3 [1] = settings: incubation time: 72 h
How it was run: (§1)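 Each value is normalised viability at a single listed concentration of the series. Breast cancer cell lines in 384-well plates were incubated 72 h with compound and read by CellTiter-Blue fluorescence at 560/590 nm, with vehicle set to 100 and a positive kill control to 0 on every plate.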

HCC1143 [2] = settings: incubation time: 72 h
How it was run: as §1

MDA-MB-436 [3] = settings: incubation time: 72 h
How it was run: as §1

CAL-51 [4] = settings: incubation time: 72 h
How it was run: as §1

BT-549 [5] = settings: incubation time: 72 h
How it was run: as §1

CAL-120 [6] = settings: incubation time: 72 h
How it was run: as §1

HCC1937 [7] = settings: incubation time: 72 h
How it was run: as §1

Hs578T [8] = settings: incubation time: 72 h
How it was run: as §1

MDA-MB-468 [9] = settings: incubation time: 72 h
How it was run: as §1

HCC1599 [10] = settings: incubation time: 72 h
How it was run: as §1

DU-4475 [11] = settings: incubation time: 72 h
How it was run: as §1

HDQ-P1 [12] = settings: incubation time: 72 h
How it was run: as §1

CAL-85-1 [13] = settings: incubation time: 72 h
How it was run: as §1

MFM-223 [14] = settings: incubation time: 72 h
How it was run: as §1

MDA-MB-453 [15] = settings: incubation time: 72 h
How it was run: as §1

BT-474 [16] = settings: incubation time: 72 h
How it was run: as §1

MDA-MB-231 [17] = settings: incubation time: 72 h
How it was run: as §1

CAL-148 [18] = settings: incubation time: 72 h
How it was run: as §1

SK-BR-3 [19] = settings: 100 nM; incubation time: 72 h
Protocol: (§2)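 DSRT, CellTiter-Blue viability, 72 h incubation. Signal is normalised to DMSO and benzethonium chloride controls. Value is the normalised response at dose 3.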

HCC1143 [20] = settings: 100 nM; incubation time: 72 h
Protocol: as §2

MDA-MB-436 [21] = settings: 100 nM; incubation time: 72 h
Protocol: as §2

CAL-51 [22] = settings: 10 nM; incubation time: 72 h
Protocol: as §2

BT-549 [23] = settings: 100 nM; incubation time: 72 h
Protocol: as §2

CAL-120 [24] = settings: 100 nM; incubation time: 72 h
Protocol: as §2

HCC1937 [25] = settings: 100 nM; incubation time: 72 h
Protocol: as §2

Hs578T [26] = settings: 100 nM; incubation time: 72 h
Protocol: as §2

MDA-MB-468 [27] = settings: 100 nM; incubation time: 72 h
Protocol: as §2

HCC1599 [28] = settings: 100 nM; incubation time: 72 h
Protocol: as §2

DU-4475 [29] = settings: 10 nM; incubation time: 72 h
Protocol: as §2

HDQ-P1 [30] = settings: 10 nM; incubation time: 72 h
Protocol: as §2

CAL-85-1 [31] = settings: 10 nM; incubation time: 72 h
Protocol: as §2

MFM-223 [32] = settings: 100 nM; incubation time: 72 h
Protocol: as §2

MDA-MB-453 [33] = settings: 10 nM; incubation time: 72 h
Protocol: as §2

BT-474 [34] = settings: 100 nM; incubation time: 72 h
Protocol: as §2

MDA-MB-231 [35] = settings: 100 nM; incubation time: 72 h
Protocol: as §2

CAL-148 [36] = settings: 10 nM; incubation time: 72 h
Protocol: as §2

CAL-51 [37] = settings: incubation time: 72 h; remark: listed apart in the source
Protocol: (§3)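 DSRT, CellTiter-Blue viability, 72 h incubation. Signal is normalised to DMSO and benzethonium chloride controls. Value is the normalised response at dose 8.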

DU-4475 [38] = settings: incubation time: 72 h; remark: listed apart in the source
Protocol: as §3

HDQ-P1 [39] = settings: incubation time: 72 h; remark: listed apart in the source
Protocol: as §3

CAL-85-1 [40] = settings: incubation time: 72 h; remark: listed apart in the source
Protocol: as §3

MDA-MB-453 [41] = settings: incubation time: 72 h; remark: listed apart in the source
Protocol: as §3

CAL-148 [42] = settings: incubation time: 72 h; remark: listed apart in the source
Protocol: as §3

CAL-51 [43] = settings: incubation time: 72 h; remark: listed apart in the source
Protocol: (§4)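 DSRT, CellTiter-Blue viability, 72 h incubation. Signal is normalised to DMSO and benzethonium chloride controls. Value is the normalised response at dose 9.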

DU-4475 [44] = settings: incubation time: 72 h; remark: listed apart in the source
Protocol: as §4

HDQ-P1 [45] = settings: incubation time: 72 h; remark: listed apart in the source
Protocol: as §4

CAL-85-1 [46] = settings: incubation time: 72 h; remark: listed apart in the source
Protocol: as §4

MDA-MB-453 [47] = settings: incubation time: 72 h; remark: listed apart in the source
Protocol: as §4

CAL-148 [48] = settings: incubation time: 72 h; remark: listed apart in the source
Protocol: as §4

Compound: O=P(O)(O)C(O)(Cn1ccnc1)P(=O)(O)O [Zoledronic acid]
- normalised viability (SK-BR-3 [1]; 10 nM): 106%
- normalised viability (SK-BR-3 [1]; 1000 nM): 93.9%
- normalised viability (SK-BR-3 [1]; 10000 nM): 96.5%
- normalised viability (HCC1143 [2]; 10 nM): 82%
- normalised viability (HCC1143 [2]; 1000 nM): 85.2%
- normalised viability (HCC1143 [2]; 10000 nM): 85.2%
- normalised viability (MDA-MB-436 [3]; 10 nM): 95%
- normalised viability (MDA-MB-436 [3]; 1000 nM): 89.2%
- normalised viability (MDA-MB-436 [3]; 10000 nM): 94.3%
- normalised viability (CAL-51 [4]; 3 nM): 108%
- normalised viability (CAL-51 [4]; 30 nM): 116%
- normalised viability (CAL-51 [4]; 100 nM): 102%
- normalised viability (BT-549 [5]; 10 nM): 92.5%
- normalised viability (BT-549 [5]; 1000 nM): 108%
- normalised viability (BT-549 [5]; 10000 nM): 91.3%
- normalised viability (CAL-120 [6]; 10 nM): 81.2%
- normalised viability (CAL-120 [6]; 1000 nM): 98%
- normalised viability (CAL-120 [6]; 10000 nM): 91.8%
- normalised viability (HCC1937 [7]; 10 nM): 96.4%
- normalised viability (HCC1937 [7]; 1000 nM): 95.5%
- normalised viability (HCC1937 [7]; 10000 nM): 99.7%
- normalised viability (Hs578T [8]; 10 nM): 95.1%
- normalised viability (Hs578T [8]; 1000 nM): 113%
- normalised viability (Hs578T [8]; 10000 nM): 98.2%
- normalised viability (MDA-MB-468 [9]; 10 nM): 107%
- normalised viability (MDA-MB-468 [9]; 1000 nM): 102%
- normalised viability (MDA-MB-468 [9]; 10000 nM): 111%
- normalised viability (HCC1599 [10]; 10 nM): 94.1%
- normalised viability (HCC1599 [10]; 1000 nM): 75.3%
- normalised viability (HCC1599 [10]; 10000 nM): 95.4%
- normalised viability (DU-4475 [11]; 3 nM): 107%
- normalised viability (DU-4475 [11]; 30 nM): 95.8%
- normalised viability (DU-4475 [11]; 100 nM): 99.8%
- normalised viability (HDQ-P1 [12]; 3 nM): 94.6%
- normalised viability (HDQ-P1 [12]; 30 nM): 91.9%
- normalised viability (HDQ-P1 [12]; 100 nM): 84.1%
- normalised viability (CAL-85-1 [13]; 3 nM): 91.6%
- normalised viability (CAL-85-1 [13]; 30 nM): 83.2%
- normalised viability (CAL-85-1 [13]; 100 nM): 96.5%
- normalised viability (MFM-223 [14]; 10 nM): 99.3%
- normalised viability (MFM-223 [14]; 1000 nM): 86.5%
- normalised viability (MFM-223 [14]; 10000 nM): 97.2%
- normalised viability (MDA-MB-453 [15]; 3 nM): 101%
- normalised viability (MDA-MB-453 [15]; 30 nM): 96%
- normalised viability (MDA-MB-453 [15]; 100 nM): 101%
- normalised viability (BT-474 [16]; 10 nM): 103%
- normalised viability (BT-474 [16]; 1000 nM): 103%
- normalised viability (BT-474 [16]; 10000 nM): 117%
- normalised viability (MDA-MB-231 [17]; 10 nM): 92.2%
- normalised viability (MDA-MB-231 [17]; 1000 nM): 89.3%
- normalised viability (MDA-MB-231 [17]; 10000 nM): 95.9%
- normalised viability (CAL-148 [18]; 3 nM): 92.2%
- normalised viability (CAL-148 [18]; 30 nM): 84.4%
- normalised viability (CAL-148 [18]; 100 nM): 92.6%
- normalised viability (SK-BR-3 [19]): 91%
- normalised viability (HCC1143 [20]): 89.1%
- normalised viability (MDA-MB-436 [21]): 113%
- normalised viability (CAL-51 [22]): 116%
- normalised viability (BT-549 [23]): 101%
- normalised viability (CAL-120 [24]): 94.2%
- normalised viability (HCC1937 [25]): 102%
- normalised viability (Hs578T [26]): 85.3%
- normalised viability (MDA-MB-468 [27]): 117%
- normalised viability (HCC1599 [28]): 109%
- normalised viability (DU-4475 [29]): 97.7%
- normalised viability (HDQ-P1 [30]): 91.5%
- normalised viability (CAL-85-1 [31]): 90.2%
- normalised viability (MFM-223 [32]): 91.7%
- normalised viability (MDA-MB-453 [33]): 96.2%
- normalised viability (BT-474 [34]): 102%
- normalised viability (MDA-MB-231 [35]): 93.9%
- normalised viability (CAL-148 [36]): 86.5%

Compound: O=P(O)(O)C(O)(Cn1ccnc1)P(=O)(O)O [Zoledronic acid] (3000 nM)
- normalised viability (CAL-51 [37]): 113%
- normalised viability (DU-4475 [38]): 121%
- normalised viability (HDQ-P1 [39]): 89.4%
- normalised viability (CAL-85-1 [40]): 96.8%
- normalised viability (MDA-MB-453 [41]): 111%
- normalised viability (CAL-148 [42]): 90.1%

Compound: O=P(O)(O)C(O)(Cn1ccnc1)P(=O)(O)O [Zoledronic acid] (10000 nM)
- normalised viability (CAL-51 [43]): 103%
- normalised viability (DU-4475 [44]): 98%
- normalised viability (HDQ-P1 [45]): 106%
- normalised viability (CAL-85-1 [46]): 90.4%
- normalised viability (MDA-MB-453 [47]): 82.3%
- normalised viability (CAL-148 [48]): 96.1%
